Data taken from patent US20110251219A1, “TREATMENT FOR GLOMERULONEPHRITIS WITH 2-[4-(7-ETHYL-5H-PYRROLO[2,3-B]PYRAZIN-6-YL)PHENYL]PROPAN-2-OL” (SANOFI, priority 2008, published 2011).
“And” between values parts separate entries of the source, which are not always exact repeats. Equal entries are not always repeated.

Columns and labels:
[1] = test system: glomerulonephritis induced by a 30 microgram intravenous injection of clone a84 (IgG2a); experiment: a84 antibody-induced glomerulonephritis animal model, urinary protein levels; assay type: in vivo, Rat, WKY; settings: for % Inhibition of Total Urinary Protein Levels (mg), individual animal / % Inhibition of Total Urinary Protein Levels (mg), Mean: 30 ug a84 antibody iv; for % Inhibition of Total Urinary Protein Levels (mg), Mean: urine day 6-7 (16 h), male WKY rats, group mean
Description: Study Objective: Glomerulonephritis is a complex disease involving cytokines, cell infiltration, cell proliferation, and rapid deterioration of renal function. This animal model will provide a relatively short term and quantitative measurement of glomerulonephritis. This study was designed to determine if a compound of Formula I will reduce glomerulonephritis induced by a 30 microgram intravenous injection of clone a84 (IgG2a). This monoclonal antibody induces disease by binding to a glomerular basement membrane protein. Disease progression is monitored in two ways in this model. First, the levels of protein in excreted urine are assessed. This readout serves as a rapid marker of renal diseased. The second mechanism by which disease is monitored is by examining the substructure of the kidney via histological examination.
Aim of Study: Glomerulonephritis is a complex disease involving cytokines, cell infiltration, cell proliferation, and rapid deterioration of renal function. This animal model provided a relatively short term and quantitative measurement of glomerulonephritis. This study was designed to determine if the compound of Formula I as hydrochloride salt will reduce glomerulonephritis induced by a 30 microgram intravenous injection of clone a84 (IgG2a).
Species, Strain, Supplier: Rat, WKY, Charles River
Duration and Frequency of Treatment: Animals in groups B through F and H through L received a 30 ug iv injection of a84 antibody on day 0 approximately 1 hour post dose.
Route of Administration: Oral gavage
Duration and Frequency of Treatment: Each animal in groups C, D, and E received an A.M. and P.M. dose approximately 8 hours apart from day 0 through day 6. Each animal in groups I, J, and K received an A.M. and P.M. dose approximately 8 hours apart from day 0 through day 3. Dosing was initiated on day 0 approximately 1 hour prior to a84 antibody injection.
Route of Administration: intraperitoneal (ip)
Duration and Frequency of Treatment: Each animal in groups F and L received an A.M. dose on day 0 approximately 1 hour prior to a84 antibody injection and a PM dose on day 3.
Kit: Rat Urinary Protein Assay Kit
Study Parameters Rat urinary proteins was measured over approximately a 16 hour period from day 6 to day 7. The kidneys were harvested for histological evaluation and for possible mRNA isolation.
Evaluation Method: Rat urinary protein levels was determined by the kit described in section 2.3.
Chronology of Examinations and/or Sampling: 1) Rats were placed into six groups of eight, six groups of 4, and one group of 3 based on compound and dose administered: Group A Vehicle (0.5% methyl cellulose containing 0.2% tween 80)+IV saline injection n=8, Group B Vehicle (0.5% methyl cellulose containing 0.2% tween 80)+IV a84 antibody injection n=8, Group C Compound of Formula I as hydrochloride salt 3.0 mg/kg+IV a84 antibody injection n=8, Group D SAR397769A 10 mg/kg+IV a84 antibody injection n=8, Group E Compound of Formula I as hydrochloride salt 30 mg/kg+IV a84 antibody injection n=8, Group F Enbrel 5.0 mg/kg+IV a84 antibody injection, Group G Vehicle (0.5% methyl cellulose containing 0.2% tween 80)+IV saline injection n=4, Group H Vehicle (0.5% methyl cellulose containing 0.2% tween 80)+IV a84 antibody injection n=4, Group I Compound of Formula I as hydrochloride salt 3.0 mg/kg+IV a84 antibody injection n=4, Group J SAR397769A 10 mg/kg+IV a84 antibody injection n=4, Group K Compound of Formula I as hydrochloride salt 30 mg/kg+IV a84 antibody injection n=4, Group L Enbrel 5.0 mg/kg+IV a84 antibody injection n=4, and Group M Naïve n=3. 2) On day 0, rats were dosed one hour prior to a84 antibody injection. Animals in groups A through E, and G through K were dosed orally. Dosing continued twice daily in groups A through E from day 0 to day 6 with approximately 8 hours between doses. Dosing continued twice daily in groups G through K from day 0 to day 3 with approximately 8 hours between doses. […]

[2] = target: Syk kinase (Homo sapiens, UniProt P43405); settings: as described in WO2008/033798; cited from earlier work

Compound	% Inhibition of Total Urinary Protein Levels (mg), individual animal ([1]; 3.0 mg/kg oral gavage twice daily day 0-6, single animals 1-8)	% Inhibition of Total Urinary Protein Levels (mg), Mean ([1]; 3.0 mg/kg oral gavage twice daily day 0-6)	% Inhibition of Total Urinary Protein Levels (mg), Mean ([1]; 3.0 mg/kg oral gavage twice daily day 0-6, listed as compound of Formula I)	% Inhibition of Total Urinary Protein Levels (mg), individual animal ([1]; 10 mg/kg oral gavage twice daily day 0-6, single animals 1-8)	% Inhibition of Total Urinary Protein Levels (mg), Mean ([1]; 10 mg/kg oral gavage twice daily day 0-6)	% Inhibition of Total Urinary Protein Levels (mg), Mean ([1]; 10 mg/kg oral gavage twice daily day 0-6, listed as compound of Formula I)	% Inhibition of Total Urinary Protein Levels (mg), individual animal ([1]; 30 mg/kg oral gavage twice daily day 0-6, single animals 1-8)	% Inhibition of Total Urinary Protein Levels (mg), Mean ([1]; 30 mg/kg oral gavage twice daily day 0-6)	% Inhibition of Total Urinary Protein Levels (mg), Mean ([1]; 30 mg/kg oral gavage twice daily day 0-6, listed as compound of Formula I)	reduction of urinary protein levels compared with positive control (Enbrel) ([1]; 30 mg/kg versus Enbrel 5.0 mg/kg)	Syk kinase inhibition [2]	% Inhibition of Total Urinary Protein Levels (mg), individual animal ([1]; 5.0 mg/kg ip on day 0 and day 3, single animals 1-7)	% Inhibition of Total Urinary Protein Levels (mg), Mean ([1]; 5.0 mg/kg ip on day 0 and day 3)
CCc1c(-c2ccc(C(C)(C)O)cc2)[nH]c2nccnc12 [Exp Cmpd, 2-[4-(7-Ethyl-5H-pyrrolo [2,3-b]pyrazin-6-yl)-phenyl]-propan-2-ol]	−0.60% and 9.50% and −5.97% and 54.11% and 43.80% and 42.33% and 65.58% and −3.63%	25.64%	25%	46.17% and 64.93% and 71.77% and 76.96% and 81.22% and 43.56% and 35.61% and 11.63%	53.98%	53%	84.66% and 85.65% and 79.73% and 86.92% and 88.28% and 84.82% and 81.26% and 92.32%	85.46%	85%	significantly better than the positive control	Syk kinase inhibitor	–	–
Enbrel [reference compound]	–	–	–	–	–	–	–	–	–	–	–	50.26% and 33.67% and 61.10% and 46.54% and 58.91% and 63.92% and 22.67%	48.15%
